Experiment [1] has as its system secreted phospholipase B (LPL/LPTA activities). The experiment in a line: Radiometric assay, secreted LPL and LPTA activities (Lyso assay). The following applies: for % Inhibition LPL, Secretory Enzyme / % Inhibition LPTA, Secretory Enzyme: pH 4. Type of experiment: biochemical, Cryptococcus neoformans H99. In short, it runs like this:
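Cell-free supernatant from C. neoformans H99 (incubated 24 h at 37° C in imidazole buffer, pH 5.5) with 1 μg total protein and 200 μM lyso-PC incl. 1-[^14C]palmitoyl lyso-PC, 15 s reaction. LPL from substrate loss, LPTA from radiolabelled PC formed, after extraction and TLC; inhibitors tested at 25 and 250 μM, then 2.5 and 0.25 μM, inhibition vs inhibitor-free control, triplicate.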

The subject of experiment [2] is Scedosporium apiospermum 1-003-056. The experiment in a line: In vitro antifungal activity, filamentous fungi, NCCLS M38-A. The experiment is classed as cell-based. The following applies: Scedosporium apiospermum, 1003056. From the text: (§1) The assay used for filamentous fungi (Aspergillus; Scedosporium; Fusarium) was that published by the National Committee for Clinical Laboratory Standards. 2002. Reference Method for Broth Dilution Antifungal Susceptibility Testing of Filamentous Fungi: Approved Standard. NCCLS document M38-A.Villanova, Pa., USA.

For experiment [3], the system named is Scedosporium prolificans 1-003-040. Described as above. The experiment is classed as cell-based. As to conditions: Lomentospora prolificans, 1003040.
From the text: as §1

Experiment [4] has as its system Aspergillus fumigatus ATCC 204 305. The description is as above. As to conditions: Aspergillus fumigatus, ATCC204. The experiment is classed as cell-based.
From the text: as §1

The subject of experiment [5] is Aspergillus terreus ATCC 03-232-378. The description is as above. As to conditions: Aspergillus terreus, ATCC03. The experiment is classed as cell-based.
From the text: as §1

Experiment [6] deals with Fusarium solani 04-132-4207. Described as above. The experiment is classed as cell-based. The following applies: Fusarium solani, 041324207.
From the text: as §1

In experiment [7] the test system is Aspergillus flavus ATCC 204 304. Described as above. The following applies: Aspergillus flavus, ATCC204. The experiment is classed as cell-based.
From the text: as §1

Molecules are shown by their SMILES. Values joined by “and” are separate entries in the source; they are usually repeats but may differ in a detail not shown here. Equal entries are not always repeated. Marks after values point to notes of the source that are not given here.

For `CCCC[P+](CCCC)(CCCC)CCCCCCCCCCCC[P+](CCCC)(CCCC)CCCC` [Compound 1, 1,12-bis(tributylphosphonium)dodecane dibromide], in experiment [1] (0.25 μM), the “Lyso assay (% inhibition) LPL” value was 0%; the “Lyso assay (% inhibition) LPTA” value was 0%; the “% Inhibition LPL, Secretory Enzyme” value worked out at 0%; the “% Inhibition LPTA, Secretory Enzyme” value was 0%. Moreover, in experiment [1] (2.5 μM), the “Lyso assay (% inhibition) LPL” value is on record as 0%; the “Lyso assay (% inhibition) LPTA” value is 0%; the “% Inhibition LPL, Secretory Enzyme” value is given as 0%; the “% Inhibition LPTA, Secretory Enzyme” value was 0%. Moreover, in experiment [1] (25 μM), the “Lyso assay (% inhibition) LPL” value is 0%; the “Lyso assay (% inhibition) LPTA” value stood at 0%; the “% Inhibition LPL, Secretory Enzyme” value amounted to 0%; the “% Inhibition LPTA, Secretory Enzyme” value was found to be 0%. In experiment [1] (250 μM), the “Lyso assay (% inhibition) LPL” value is 6%; the “Lyso assay (% inhibition) LPTA” value came out at 4%; the “% Inhibition LPL, Secretory Enzyme” value is recorded as 6.3* %; the “% Inhibition LPTA, Secretory Enzyme” value is given as 3.7* %.
With `CCCC[N+](CCCC)(CCCC)CCCCCCCCCCCC[N+](CCCC)(CCCC)CCCC` [1,12-Bis-(tributylammonium)dodecane dichloride], the MIC (commonly the lowest concentration found to suppress growth) in experiment [2] is 1.7 µg/mL and 2.8 µM; in experiment [3], 3.3 µg/mL and 5.5 µM; in experiment [4], 6.7 µg/mL and 11 µM; in experiment [5], 3.3 µg/mL and 5.5 µM; in experiment [6] it was 3.3 µg/mL and 5.5 µM; in experiment [7], 13.4 µg/mL and 22 µM.

For the origin of these results see US7947854B2, “Bis-cationic compounds and use thereof” (The University of Sydney, priority 2003, dated 2011).
